# Laboratory results as given in patent EP2951180B1, “2,6,7,8 SUBSTITUTED PURINES AS HDM2 INHIBITORS” (Merck Sharp & Dohme Corp., priority 2013, dated 2014).
# Biological target: T1, HDM2 (Homo sapiens, UniProt Q00987)
# T1 construct: Thioredoxin (N); made in house; host or cells: E. coli strain BL21(DE3)Rosetta
# Assay: FRET assay (HDM2 inhibition; method not described in this part)
# Type: binding
# Details: Table 1
# T1 sequence (Q00987 17-125): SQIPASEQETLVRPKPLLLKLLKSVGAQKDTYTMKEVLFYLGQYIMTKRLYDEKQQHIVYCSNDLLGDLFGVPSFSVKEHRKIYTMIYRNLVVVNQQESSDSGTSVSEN
row,SMILES,IC50 [nM]
1,"C[C@@H](Nc1nc(C(=O)O)nc2nc(-c3cc(OC4CCC4)ccn3)n(Cc3ccc(C(F)(F)F)cc3)c12)C1CCC1 [Example 1.45, 6-{[(1R)-1-cyclobutylethyl]amino}-8-[4-(cyclobutyloxy)pyridin-2-yl]-7-[4-(trifluoromethyl)benzyl]-7H-purine-2-carboxylic acid]",50.8
2,"C[C@@H](Nc1nc(C(=O)O)nc2nc(-c3cc(C(F)F)ccn3)n(Cc3ccc(C(F)(F)F)cc3)c12)C1CCC1 [Example 1.46, 6-{[(1R)-1-cyclobutylethyl]amino}-8-[4-(difluoromethyl)pyridin-2-yl]-7-[4-(trifluoromethyl)benzyl]-7H-purine-2-carboxylic acid]",12.3
3,"C[C@@H](Nc1nc(C(=O)O)nc2nc(-c3cc(N(C)C)ccn3)n(Cc3ccc(C(F)(F)F)cc3)c12)C1CCC1 [Example 1.47, 6-{[(1R)-1-cyclobutylethyl]amino}-8-[4-(dimethylamino)pyridin-2-yl]-7-[4-(trifluoromethyl)benzyl]-7H-purine-2-carboxylic acid]",16.4
4,"Cc1ccn(-c2ccnc(-c3nc4nc(C(=O)O)nc(N[C@H](C)C5CCC5)c4n3Cc3ccc(C(F)(F)F)cc3)c2)n1 [Example 1.48, 6-{[(1R)-1-cyclobutylethyl]amino}-8-[4-(3-methyl-1H-pyrazol-1-yl)pyridin-2-yl]-7-[4-(trifluoromethyl)benzyl]-7H-purine-2-carboxylic acid]",2260
5,"CC(C)c1ccnc(-c2nc3nc(C(=O)O)nc(N[C@H](C)C4CCC4)c3n2Cc2ccc(C(F)(F)F)c(F)c2)c1 [Example 1.49, 6-{[(1R)-1-cyclobutylethyl]amino}-7-[3-fluoro-4-(trifluoromethyl)benzyl] - 8-[4-(1-methylethyl)pyridin-2-yl]-7H-purine-2-carboxylic acid]",3.52
6,CC(C)c1ccnc(-c2nc3nc(C(=O)O)nc(N[C@@H](C)C4CCC4)c3n2Cc2ccc(C(F)(F)F)cc2)c1 [Example 1.50],128
7,"C[C@@H](Nc1nc(C(=O)O)nc2nc(-c3cc(C4CC4)ccn3)n(Cc3ccc(C(F)(F)F)cc3)c12)C1CCC1 [Example 1.51, 6-{[(1R)-1-cyclobutylethyl]amino}-8-(4-cyclopropylpyridin-2-yl)-7-[4-(trifluoromethyl)benzyl]-7H-purine-2-carboxylic acid]",8.39
8,"CC(C)c1ccc(OC(F)(F)F)c(-c2nc3nc(C(=O)O)nc(N[C@H](C)C4CCC4)c3n2Cc2ccc(C(F)(F)F)cc2)c1 [Example 1.52, 6-{[(1R)-1-cyclobutylethyl]amino}-8-[5-(1-methylethyl)-2-(trifluoromethoxy)phenyl]-7-[4-(trifluoromethyl)benzyl] - 7H-purine-2-carboxylic acid]",6.25
9,"C[C@@H](Nc1nc(C(=O)O)nc2nc(-c3cc(C(C)(C)C)ccn3)n(Cc3ccc(C(F)(F)F)cc3)c12)C1CCC1 [Example 1.53, 8-(4-tert-butylpyridin-2-yl)-6-{[(1R)-1-cyclobutylethyl]amino}-7-[4-(trifluoromethyl)benzyl]-7H-purine-2-carboxylic acid]",4.36
10,C[C@@H](Nc1nc(C(=O)O)nc2nc(-c3cc(C4CCC4)ccn3)n(Cc3ccc(C(F)(F)F)cc3)c12)C1CCC1 [Example 1.54],5.61
11,"C[C@@H](Nc1nc(C(=O)O)nc2nc(-c3cc(C4CCCC4)ccn3)n(Cc3ccc(C(F)(F)F)cc3)c12)C1CCC1 [Example 1.55, 6-{[(1R)-1-cyclobutylethyl]amino}-8-(4-cyclopentylpyridin-2-yl)-7-[4-(trifluoromethyl)benzyl]-7H-purine-2-carboxylic acid]",4.77
12,"C[C@@H](Nc1nc(C(=O)O)nc2nc(-c3cc(C4CCCCC4)ccn3)n(Cc3ccc(C(F)(F)F)cc3)c12)C1CCC1 [Example 1.56, 6-{[(1R)-1-cyclobutylethyl]amino}-8-(4-cyclohexylpyridin-2-yl)-7-[4-(trifluoromethyl)benzyl]-7H-purine-2-carboxylic acid]",6.99
13,"C[C@@H](Nc1nc(C(=O)O)nc2nc(-c3cc(-c4cccs4)ccn3)n(Cc3ccc(C(F)(F)F)cc3)c12)C1CCC1 [Example 1.57, 6-{[(1R)-1-cyclobutylethyl]amino}-8-(4-thiophen-2-ylpyridin-2-yl)-7-[4-(trifluoromethyl)benzyl]-7H-purine-2-carboxylic acid]",5.95
14,"C[C@@H](Nc1nc(C(=O)O)nc2nc(-c3cc(OC4CCCCC4)ccn3)n(Cc3ccc(C(F)(F)F)cc3)c12)C1CCC1 [Example 1.58, 6-{[(1R)-1-cyclobutylethyl]amino}-8-[4-(cyclohexyloxy)pyridin-2-yl]-7-[4-(trifluoromethyl)benzyl]-7H-purine-2-carboxylic acid]",16.9
15,"C[C@@H](Nc1nc(C(=O)O)nc2nc(-c3cc(C(F)(F)F)ccn3)n(Cc3ccc(C(F)(F)F)cc3)c12)C1CCC1 [Example 1.60, 6-{[(1R)-1-cyclobutylethyl]amino}-7-[4-(trifluoromethyl)benzyl] - 8-[4-(trifluoromethyl)pyridin-2-yl]-7H-purine-2-carboxylic acid]",15.2
16,"C[C@@H](Nc1nc(C(=O)O)nc2nc(-c3cccc4c3CNC4)n(Cc3ccc(C(F)(F)F)cc3)c12)C1CCC1 [Example 1.61, 6-{[(1R)-1-cyclobutylethyl]amino}-8-(2,3-dihydro-1H-isoindol-4-yl)-7-[4-(trifluoromethyl)benzyl]-7H-purine-2-carboxylic acid]",51.4
17,"C[C@@H](Nc1nc(C(=O)O)nc2nc(-c3cc4ccccc4cn3)n(Cc3ccc(C(F)(F)F)cc3)c12)C1CCC1 [Example 1.62, 6-{[(1R)-1-cyclobutylethyl]amino}-8-isoquinolin-3-yl-7-[4-(trifluoromethyl)benzyl] - 7H-purine-2-carboxylic acid]",45.8
18,"C[C@@H](Nc1nc(C(=O)O)nc2nc(-c3cccc(-c4ccccc4)n3)n(Cc3ccc(C(F)(F)F)cc3)c12)C1CCC1 [Example 1.63, 6-{[(1R)-1-cyclobutylethyl]amino}-8-(6-phenylpyridin-2-yl)-7-[4-(trifluoromethyl)benzyl] - 7H-purine-2-carboxylic acid]",324
19,"C[C@@H](Nc1nc(C(=O)O)nc2nc(-c3cc(C(F)F)cc(C(F)F)n3)n(Cc3ccc(C(F)(F)F)cc3)c12)C1CCC1 [Example 1.64, 8-[4,6-bis(difluoromethyl)pyridin-2-yl]-6-{[(1R)-1-cyclobutylethyl]amino}-7-[4-(trifluoromethyl)benzyl] - 7H-purine-2-carboxylic acid]",22.9
20,"C[C@@H](Nc1nc(C(=O)O)nc2nc(-c3ccc(C4OCCO4)cn3)n(Cc3ccc(C(F)(F)F)cc3)c12)C1CCC1 [Example 1.65, 6-{[(1R)-1-cyclobutylethyl]amino}-8-[5-(1,3-dioxolan-2-yl)pyridin-2-yl]-7-[4-(trifluoromethyl)benzyl]-7H-purine-2-carboxylic acid]",62.2
21,"C[C@@H](Nc1nc(C(=O)O)nc2nc(-c3ccc(OC(F)F)cn3)n(Cc3ccc(C(F)(F)F)cc3)c12)C1CCC1 [Example 1.66, 6-{[(1R)-1-cyclobutylethyl]amino}-8-[5-(difluoromethoxy)pyridin-2-yl]-7-[4-(trifluoromethyl)benzyl]-7H-purine-2-carboxylic acid]",58.4
22,"COc1ccnc(-c2nc3nc(C(=O)O)nc(N[C@H](C)C4CCC4)c3n2Cc2ccc(C(F)(F)F)cc2)c1 [Example 1.67, 6-{[(1R)-1-cyclobutylethyl]amino}-8-(4-methoxypyridin-2-yl)-7-[4-(trifluoromethyl)benzyl]-7H-purine-2-carboxylic acid]",14.2
